From PMC10924921, “Mi-2β promotes immune evasion in melanoma by activating EZH2 methylation” (Nature Communications, 2024)

Legend:
Assay in all cases: biochemical
Design in all cases: KINOMEscan active-site competition binding panel (468 kinase assays), per cent of control at 1000 nM
Conditions in all cases: KINOMEscan per cent of control (binding competition); read-out: Percent Control
ANKK1 = ANKK1 (Homo sapiens, UniProt Q8NFD2)
Excerpt: (§1) Figure S7 / Percent Control

FGFR1 = FGFR1 (Homo sapiens, UniProt P11362)
Excerpt: as §1

CAMK2B = CAMK2B (Homo sapiens, UniProt Q13554)
Excerpt: as §1

S6K1 = target: T1, S6K1 (Homo sapiens, UniProt P23443)
T1 construct: gene RPS6KB1
Excerpt: as §1

HIPK2 = HIPK2 (Homo sapiens, UniProt Q9H2X6)
Excerpt: as §1

[1] = target: T2, ABL1(F317L)-nonphosphorylated (Homo sapiens, UniProt P00519, F317L)
T2 construct: nonphosphorylated
Excerpt: as §1

ACVR2A = ACVR2A (Homo sapiens, UniProt P27037)
Excerpt: as §1

CAMK1B = target: T3, CAMK1B (Homo sapiens, UniProt Q6P2M8)
T3 construct: gene PNCK
Excerpt: as §1

EPHA1 = EPHA1 (Homo sapiens, UniProt P21709)
Excerpt: as §1

SYK = SYK (Homo sapiens, UniProt P43405)
Excerpt: as §1

PIK3CB = PIK3CB (Homo sapiens, UniProt P42338)
Excerpt: as §1

ZAP70 = ZAP70 (Homo sapiens, UniProt P43403)
Excerpt: as §1

AURKA = AURKA (Homo sapiens, UniProt O14965)
Excerpt: as §1

CAMK1 = CAMK1 (Homo sapiens, UniProt Q14012)
Excerpt: as §1

PAK3 = PAK3 (Homo sapiens, UniProt O75914)
Excerpt: as §1

MAP3K4 = MAP3K4 (Homo sapiens, UniProt Q9Y6R4)
Excerpt: as §1

NIK = target: T4, NIK (Homo sapiens, UniProt Q99558)
T4 construct: gene MAP3K14
Excerpt: as §1

[2] = target: T5, RSK2(Kin.Dom.1-N-terminal) (Homo sapiens, UniProt P51812)
T5 construct: gene RPS6KA3; Kin.Dom.1-N-terminal
Excerpt: as §1

SNRK = SNRK (Homo sapiens, UniProt Q9NRH2)
Excerpt: as §1

ALK = ALK (Homo sapiens, UniProt Q9UM73)
Excerpt: as §1

SIK = target: T6, SIK (Homo sapiens, UniProt P57059)
T6 construct: gene SIK1
Excerpt: as §1

[3] = target: T7, ABL1(Q252H)-nonphosphorylated (Homo sapiens, UniProt P00519, Q252H)
T7 construct: nonphosphorylated
Excerpt: as §1

SgK110 = target: T8, SgK110 (Homo sapiens, UniProt P0C264)
T8 construct: gene SBK3
Excerpt: as §1

CDKL1 = CDKL1 (Homo sapiens, UniProt Q00532)
Excerpt: as §1

AKT1 = AKT1 (Homo sapiens, UniProt P31749)
Excerpt: as §1

AURKA, sequence (O14965 whole entry): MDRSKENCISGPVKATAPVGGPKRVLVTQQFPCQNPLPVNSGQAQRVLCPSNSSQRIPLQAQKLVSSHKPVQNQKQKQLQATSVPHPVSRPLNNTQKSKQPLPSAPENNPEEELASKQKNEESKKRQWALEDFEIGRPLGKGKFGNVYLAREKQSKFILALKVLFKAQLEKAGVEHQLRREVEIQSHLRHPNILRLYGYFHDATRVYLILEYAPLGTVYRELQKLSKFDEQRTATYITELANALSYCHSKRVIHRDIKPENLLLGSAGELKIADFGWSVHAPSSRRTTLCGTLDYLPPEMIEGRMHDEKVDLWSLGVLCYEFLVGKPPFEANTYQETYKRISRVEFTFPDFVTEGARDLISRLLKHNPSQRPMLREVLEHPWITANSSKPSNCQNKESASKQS
T4 sequence (Q99558 whole entry): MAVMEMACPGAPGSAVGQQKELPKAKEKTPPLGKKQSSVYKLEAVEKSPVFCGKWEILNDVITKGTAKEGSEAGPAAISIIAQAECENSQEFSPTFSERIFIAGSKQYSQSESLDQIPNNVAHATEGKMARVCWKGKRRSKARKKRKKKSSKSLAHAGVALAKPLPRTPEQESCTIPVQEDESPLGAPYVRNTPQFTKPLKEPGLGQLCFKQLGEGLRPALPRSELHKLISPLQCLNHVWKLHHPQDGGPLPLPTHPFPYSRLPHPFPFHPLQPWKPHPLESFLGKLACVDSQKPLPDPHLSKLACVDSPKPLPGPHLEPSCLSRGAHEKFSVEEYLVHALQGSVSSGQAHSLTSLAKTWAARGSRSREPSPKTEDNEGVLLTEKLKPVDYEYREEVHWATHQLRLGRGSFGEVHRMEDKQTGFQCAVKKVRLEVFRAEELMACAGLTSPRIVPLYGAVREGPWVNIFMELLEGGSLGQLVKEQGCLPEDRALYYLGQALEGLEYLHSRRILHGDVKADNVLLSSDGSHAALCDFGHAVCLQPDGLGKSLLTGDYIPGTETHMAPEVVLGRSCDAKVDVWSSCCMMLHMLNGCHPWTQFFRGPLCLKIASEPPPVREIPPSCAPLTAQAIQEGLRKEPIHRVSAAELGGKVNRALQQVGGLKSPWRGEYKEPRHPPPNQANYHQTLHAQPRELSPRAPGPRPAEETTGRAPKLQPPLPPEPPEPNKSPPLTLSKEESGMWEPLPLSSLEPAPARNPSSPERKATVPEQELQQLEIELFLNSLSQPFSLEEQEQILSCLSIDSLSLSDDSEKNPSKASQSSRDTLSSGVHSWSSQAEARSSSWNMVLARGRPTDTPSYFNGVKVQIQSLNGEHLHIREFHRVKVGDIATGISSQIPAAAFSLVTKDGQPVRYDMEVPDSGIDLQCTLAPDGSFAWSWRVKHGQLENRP
T5 sequence (P51812 whole entry): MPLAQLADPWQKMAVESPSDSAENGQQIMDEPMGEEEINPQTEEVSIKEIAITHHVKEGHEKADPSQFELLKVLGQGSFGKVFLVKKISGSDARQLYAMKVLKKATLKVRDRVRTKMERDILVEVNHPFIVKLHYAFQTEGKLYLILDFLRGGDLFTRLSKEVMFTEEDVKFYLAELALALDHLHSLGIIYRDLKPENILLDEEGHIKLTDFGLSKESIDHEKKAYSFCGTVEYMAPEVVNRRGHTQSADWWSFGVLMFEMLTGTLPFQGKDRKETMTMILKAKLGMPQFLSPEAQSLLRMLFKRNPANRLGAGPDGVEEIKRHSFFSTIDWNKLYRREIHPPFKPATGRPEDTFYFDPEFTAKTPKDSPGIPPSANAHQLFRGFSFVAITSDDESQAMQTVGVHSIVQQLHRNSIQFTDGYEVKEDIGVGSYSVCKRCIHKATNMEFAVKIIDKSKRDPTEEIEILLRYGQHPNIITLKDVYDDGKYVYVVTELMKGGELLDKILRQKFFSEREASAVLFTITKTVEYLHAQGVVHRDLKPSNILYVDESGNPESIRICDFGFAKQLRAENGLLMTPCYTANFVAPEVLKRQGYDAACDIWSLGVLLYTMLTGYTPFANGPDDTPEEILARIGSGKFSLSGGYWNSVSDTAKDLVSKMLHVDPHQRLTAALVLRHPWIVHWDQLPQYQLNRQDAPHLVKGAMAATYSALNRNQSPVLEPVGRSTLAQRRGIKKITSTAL
T6 sequence (P57059 whole entry): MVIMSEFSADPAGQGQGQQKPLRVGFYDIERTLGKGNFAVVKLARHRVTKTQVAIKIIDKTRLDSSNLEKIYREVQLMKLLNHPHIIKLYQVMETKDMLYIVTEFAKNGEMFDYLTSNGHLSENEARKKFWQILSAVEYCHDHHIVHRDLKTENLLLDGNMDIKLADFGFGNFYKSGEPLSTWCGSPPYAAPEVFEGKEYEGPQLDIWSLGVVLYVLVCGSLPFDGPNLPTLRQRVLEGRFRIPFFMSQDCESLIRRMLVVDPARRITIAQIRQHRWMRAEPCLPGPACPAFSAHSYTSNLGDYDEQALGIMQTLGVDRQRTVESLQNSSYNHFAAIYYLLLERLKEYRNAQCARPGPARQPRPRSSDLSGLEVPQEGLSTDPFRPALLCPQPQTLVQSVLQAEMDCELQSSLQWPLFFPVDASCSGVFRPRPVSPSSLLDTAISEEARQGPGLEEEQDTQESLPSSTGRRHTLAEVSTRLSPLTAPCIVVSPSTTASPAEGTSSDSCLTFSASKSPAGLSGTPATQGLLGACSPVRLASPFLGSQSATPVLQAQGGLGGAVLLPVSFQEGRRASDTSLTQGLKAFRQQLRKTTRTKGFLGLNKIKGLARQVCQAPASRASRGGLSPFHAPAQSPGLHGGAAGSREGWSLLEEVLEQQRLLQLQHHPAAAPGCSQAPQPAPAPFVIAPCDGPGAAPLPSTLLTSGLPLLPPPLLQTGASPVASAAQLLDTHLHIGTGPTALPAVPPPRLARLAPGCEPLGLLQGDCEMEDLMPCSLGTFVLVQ
T3 sequence (Q6P2M8 whole entry): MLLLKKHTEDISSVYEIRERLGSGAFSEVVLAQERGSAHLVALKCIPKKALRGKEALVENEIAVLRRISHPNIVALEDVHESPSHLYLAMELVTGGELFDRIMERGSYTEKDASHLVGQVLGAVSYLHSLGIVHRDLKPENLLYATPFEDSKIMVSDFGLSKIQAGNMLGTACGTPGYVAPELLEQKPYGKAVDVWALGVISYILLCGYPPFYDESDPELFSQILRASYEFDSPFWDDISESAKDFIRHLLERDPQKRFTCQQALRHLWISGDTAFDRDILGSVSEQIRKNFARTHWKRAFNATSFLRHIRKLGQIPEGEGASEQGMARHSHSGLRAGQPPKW
ACVR2A, sequence (P27037 whole entry): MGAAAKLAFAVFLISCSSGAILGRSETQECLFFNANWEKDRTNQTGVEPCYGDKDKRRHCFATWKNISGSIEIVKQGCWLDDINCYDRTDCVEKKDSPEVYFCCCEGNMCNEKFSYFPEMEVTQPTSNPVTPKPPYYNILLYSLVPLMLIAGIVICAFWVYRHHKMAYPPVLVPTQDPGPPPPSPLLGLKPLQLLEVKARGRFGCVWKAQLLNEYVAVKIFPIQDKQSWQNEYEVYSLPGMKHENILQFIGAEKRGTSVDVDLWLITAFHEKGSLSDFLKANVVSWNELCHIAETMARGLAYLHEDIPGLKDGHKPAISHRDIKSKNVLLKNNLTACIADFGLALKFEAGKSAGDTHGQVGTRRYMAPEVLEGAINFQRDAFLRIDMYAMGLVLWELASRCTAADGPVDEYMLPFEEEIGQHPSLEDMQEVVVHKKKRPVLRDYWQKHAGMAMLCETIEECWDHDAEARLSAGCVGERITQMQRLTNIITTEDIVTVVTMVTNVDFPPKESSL
T8 sequence (P0C264 whole entry): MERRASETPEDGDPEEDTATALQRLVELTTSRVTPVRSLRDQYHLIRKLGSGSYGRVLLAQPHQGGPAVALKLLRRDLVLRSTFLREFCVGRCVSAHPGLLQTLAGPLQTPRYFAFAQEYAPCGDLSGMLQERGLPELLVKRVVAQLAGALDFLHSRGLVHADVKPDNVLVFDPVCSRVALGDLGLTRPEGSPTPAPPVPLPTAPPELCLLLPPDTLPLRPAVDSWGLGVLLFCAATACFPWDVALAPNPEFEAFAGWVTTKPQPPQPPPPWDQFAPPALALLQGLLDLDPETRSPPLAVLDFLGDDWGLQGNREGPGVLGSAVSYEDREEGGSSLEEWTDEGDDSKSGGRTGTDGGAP
CDKL1, sequence (Q00532 whole entry): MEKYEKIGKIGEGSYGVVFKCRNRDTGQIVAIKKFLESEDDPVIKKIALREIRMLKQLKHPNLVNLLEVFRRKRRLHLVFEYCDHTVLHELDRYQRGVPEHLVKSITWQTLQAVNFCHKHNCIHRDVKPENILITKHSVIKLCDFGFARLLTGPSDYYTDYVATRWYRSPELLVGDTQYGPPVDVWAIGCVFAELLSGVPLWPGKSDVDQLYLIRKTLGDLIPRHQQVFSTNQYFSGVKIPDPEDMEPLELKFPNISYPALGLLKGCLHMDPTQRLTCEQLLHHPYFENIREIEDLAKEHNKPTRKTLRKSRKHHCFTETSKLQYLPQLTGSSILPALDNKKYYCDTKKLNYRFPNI
PAK3, sequence (O75914 whole entry): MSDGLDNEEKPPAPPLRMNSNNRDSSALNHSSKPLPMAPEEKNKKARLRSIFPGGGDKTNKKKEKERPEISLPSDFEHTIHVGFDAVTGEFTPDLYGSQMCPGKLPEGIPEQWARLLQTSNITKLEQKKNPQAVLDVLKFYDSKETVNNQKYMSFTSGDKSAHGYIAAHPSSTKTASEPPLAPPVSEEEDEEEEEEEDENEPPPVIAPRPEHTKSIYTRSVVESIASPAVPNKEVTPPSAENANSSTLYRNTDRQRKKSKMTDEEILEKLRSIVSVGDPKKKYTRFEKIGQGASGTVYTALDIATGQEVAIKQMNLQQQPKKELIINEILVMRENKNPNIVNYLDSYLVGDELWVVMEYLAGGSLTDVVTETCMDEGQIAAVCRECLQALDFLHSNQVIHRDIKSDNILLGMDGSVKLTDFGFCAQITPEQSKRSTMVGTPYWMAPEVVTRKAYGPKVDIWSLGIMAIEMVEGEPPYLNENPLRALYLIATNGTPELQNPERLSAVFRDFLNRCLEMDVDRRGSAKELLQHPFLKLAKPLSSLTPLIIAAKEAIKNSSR

Cn1c(=O)[nH]c2ccc(-c3cccc(C(=O)NC4CCn5ccnc5C4)c3)cc21 (stereo not shown) [Z36-MP5]
remaining binding at 1 µM (ANKK1): 60% | remaining binding at 1 µM (FGFR1): 55% | remaining binding at 1 µM (CAMK2B): 91% | remaining binding at 1 µM (S6K1): 50% | remaining binding at 1 µM (HIPK2): 64% | remaining binding at 1 µM [1]: 82% | remaining binding at 1 µM (ACVR2A): 57% | remaining binding at 1 µM (CAMK1B): 59% | remaining binding at 1 µM (EPHA1): 96% | remaining binding at 1 µM (SYK): 57% | remaining binding at 1 µM (PIK3CB): 71% | remaining binding at 1 µM (ZAP70): 91% | remaining binding at 1 µM (AURKA): 56% | remaining binding at 1 µM (CAMK1): 91% | remaining binding at 1 µM (PAK3): 71% | remaining binding at 1 µM (MAP3K4): 63% | remaining binding at 1 µM (NIK): 46% | remaining binding at 1 µM [2]: 67% | remaining binding at 1 µM (SNRK): 78% | remaining binding at 1 µM (ALK): 51% | remaining binding at 1 µM (SIK): 81% | remaining binding at 1 µM [3]: 84% | remaining binding at 1 µM (SgK110): 97% | remaining binding at 1 µM (CDKL1): 41% | remaining binding at 1 µM (AKT1): 95%
